Data: patent publication US11590092B2, “Skin probiotic” (The Regents of the University of California, priority 2014, dated 2023)
Converted amounts (≈) assume the structure as drawn. “Also recorded” adds a separate entry of the source.

How the values were obtained:
[1] = tested on: P. acnes; settings: 5 mM, 5 min after treatment, vs PBS
Procedure: To eliminate unbound probe, bacteria were incubated with glucose (10 mM) for an additional 30 min, washed twice in 50 mM PBS with 10 mM MgCl2, pH 7.0, and then re-suspended in 1 mM PBS. […] Fluorescence intensities were measured immediately and every min for 5 min using an excitation wavelength of 490 nm and emission wavelength of 520 nm. A drop in relative fluorescence indicates the decrease in intracellular pH. Fluorescence of the bacteria-free filtrate (background fluorescence) was measured after the 5-min assay. The treated suspensions were centrifuged at 5,000 g for 5 min, the fluorescence of the bacteria-free supernatant was measured. Calibration curves were obtained by incubation of un-treated, cFSE-loaded bacteria in buffers of various pHs. The buffer containing glycine (50 mM), citric acid (50 mM), Na2HPO4.2H2O (50 mM), and KCl (50 mM) was adjusted to various pH values ranging from 4 to 10. Equilibration of the intracellular and extracellular pH was conducted by addition of 1 μM valinomycin and nigericin (Sigma, St. Louis, Mo.).
P. acnes was loaded with an internally conjugated fluorescent pH probe, carboxyfluorescein succinimidyl ester (cFSE).

[2] = tested on: P. acnes; experiment: MBC assays of SCFAs against P. acnes; type: cell-based, Propionibacterium acnes; settings: for MBC: Cutibacterium acnes, P. acnes 10^8 CFU/ml, overnight, 99.9% killing level
Procedure: To determine the MBC values of SCFAs, P. acnes (10^8 CFU/ml) was incubated with SCFAs at various concentrations (2.5-100 mM in PBS) as indicated in each individual experiment in media on a 96-well microplate (100 μl per well) overnight. The control received only PBS. After incubation, the bacteria were diluted 1:10-1:10^6 with PBS. MBC was defined as a 99.9% killing level and determined by spotting the dilution (5 μl) on an agar plate supplemented with media for CFU counting. To determine the effect of pH on its growth, P. acnes in PBS was incubated with 5 mM succinic acid on a 96-well microplate (100 μl per well) overnight before spotting on an agar plate. As controls, P. acnes was incubated with PBS (pH 7.4) alone, PBS (pH 5.5; a pH value corresponding to the MBC of succinic acid in PBS), or buffered succinic acid (5 mM succinic acid, pH 7.4 buffered with ammonium hydroxide).
The minimal bactericidal concentration (MBC) assays were performed to determine if SCFAs exert the antimicrobial activities against P. acnes. Bacteria were incubated with acetic acid, butyric acid, lactic acid, and succinic acid various concentrations in media for 24 h. After incubation, the bacteria were diluted with PBS and spotted on an agar plate to count CFUs. […] To assess the acidity (pH 5.5) of 5 mM succinic acid in affecting growth of P. acnes, bacteria were incubated with PBS (pH 5.5) or ammonium hydroxide-buffered succinic acid (pH 7.4).

[3] = tested on: P. acnes
[4] = tested on: USA300; experiment: Interference of P. acnes fermentation with the colonization of USA300 in skin wounds in vivo; parameters: species or system ICR mice; settings: glycerol 0.2 mg alone, compared to PBS
Procedure: A 5 mm wound made on the dorsal skin of ICR mice were described above. P. acnes bacteria (10^7 CFU in 5 μl PBS), P. acnes bacteria and glycerol (0.2 mg), PBS (5 μl) alone or glycerol alone were applied onto the skin wounds for 3 days. USA300 (10^7 CFU in 5 μl PBS) was administered onto the same wounds. The wounds were excised, weighted and homogenized 3 days after USA300 administration. Bacterial CFUs in the wounds were enumerated by plating serial dilutions (1:10^1-1:10^6) of the homogenate on a TSB agar plate. The plate was incubated for 24 h at 37° C. to count colonies of USA300.

[5] = tested on: P. acnes; experiment: Growth curve of P. acnes in absence or presence of glycerol (OD600); type: cell-based, Propionibacterium acnes; settings: rich medium with glycerol vs without, anaerobic, 30° C.
Procedure: P. acnes was incubated in rich medium in the absence (□) and presence (▪) of glycerol on a 96-well microplate under anaerobic conditions at 30° C. The OD600 was read at the indicated time points. Data are the mean±SD of three separate experiments.

[6] = tested on: USA300; experiment: Growth of USA300 with glycerol; type: cell-based, Staphylococcus aureus; settings: glycerol itself
[7] = tested on: USA300; experiment: MBC assay against USA300; type: cell-based, Staphylococcus aureus
Procedure: To determine the MBC of propionic acid, USA300 (10^6 CFU/ml) were incubated with propionic acid at various concentrations (1.25-100 mM in PBS) as indicated in each individual experiment in media on a 96-well microplate (100 μl per well) overnight. The control received only PBS. After incubation, the bacteria were diluted 1:10-1:10^6 with PBS. […] To determine the pH effect on the bacterial growth, USA300 in TSB was incubated with 2.5 mM propionic acid on a 96-well microplate (100 μl per well) overnight before spotting on an agar plate.
To determine the minimal bactericidal concentration (MBC) and minimal fungicidal concentration (MFC) of propionic acid, microorganisms (10^6 colony forming units (cfu)/ml) were incubated overnight in media with propionic acid (1.25-2,000 mM) in a 96-well microplate (100 μl per well). The control only received PBS. After incubation, the microorganisms were diluted 1:10-1:10^6 into PBS. […]

[8] = topical application, 100 mM once per day, vs PBS

SMILES: O=C(O)CCC(=O)O [succinic acid]
- intracellular pH of P. acnes [1]: significantly lowered
- antimicrobial activity against P. acnes after buffering ([2]; 5 mM succinic acid buffered with ammonium hydroxide, pH 7.4): persisted
- MBC [2]: 5 mM (≈ 590 µg/mL)
- concentration that completely killed P. acnes ([2]; MBC assay): ≥ 210 mM
- concentration that effectively suppressed the growth of P. acnes ([2]; MBC assay): ≥ 25 mM
- P. acnes-induced inflammation ([3]; application of succinic acid (FIG. 5)): significantly neutralizes
- P. acnes numbers in ears ([3]; intralesional injection, 5 mM): 2.9×10^4±1.3×10^4 CFU
- MIP-2 production less than in PBS-injected ear ([3]; intralesional injection, 5 mM, two days after injection, ELISA): approximately 50%
- P. acnes-induced redness ([3]; intralesional injection, 5 mM, vs PBS): reduced
- MIP-2 production [3, 8]: considerably lowered
- P. acnes colonization [3, 8]: considerably lowered

SMILES: OCC(O)CO [glycerol]
- USA300 colonization [4]: did not significantly alter
- size of USA300-infected lesions [4]: did not significantly alter
- growth of P. acnes [5]: did not influence; also recorded: did not change significantly
- growth of USA300 [6]: did not influence

SMILES: CCCC(=O)O [butyric acid]
- MBC [2]: 10 mM (≈ 881 µg/mL)

SMILES: CC(O)C(=O)O (stereo not drawn) [lactic acid]
- MBC [2]: 10 mM (≈ 901 µg/mL)

SMILES: CCC(=O)OCCOCCOC(=O)CC [PA-DEG-PA, propionic acid 2-(2-propionyloxyethoxy)ethyl ester]
- efficacy to suppress the growth of USA300 in vitro compared with propionic acid ([7]; 4% dimethyl sufoxide): equivalent in efficacy
- concentration for complete growth inhibition of USA300 ([7]; dissolved in 4% dimethyl sufoxide, overnight): 100 mM
- MBC (>1 log10 inhibition) against USA300 ([7]; dissolved in 4% dimethyl sufoxide, overnight, 0-100 mM): ≥ 25 mM

SMILES: CC(=O)O [acetic acid]
- MBC [2]: 7.5 mM (≈ 450 µg/mL)
